Data on 24 molecules can be found in paper PMC2096529 (Purinergic Signalling, 2005).

Where only a bound is given, the exact number is not on record here.

Targets include human P2Y2 receptor (Homo sapiens, UniProt P41231); human P2Y6 receptor (Homo sapiens, UniProt Q15077); human P2Y4 receptor (Homo sapiens, UniProt P51582); human P2Y1 receptor (Homo sapiens, UniProt P47900).
Assay in all cases: Fluo-3 calcium mobilization, FLIPR, […]1 cells
What all share (assay type): cell-based

Chain of human P2Y6 receptor (Q15077 whole entry): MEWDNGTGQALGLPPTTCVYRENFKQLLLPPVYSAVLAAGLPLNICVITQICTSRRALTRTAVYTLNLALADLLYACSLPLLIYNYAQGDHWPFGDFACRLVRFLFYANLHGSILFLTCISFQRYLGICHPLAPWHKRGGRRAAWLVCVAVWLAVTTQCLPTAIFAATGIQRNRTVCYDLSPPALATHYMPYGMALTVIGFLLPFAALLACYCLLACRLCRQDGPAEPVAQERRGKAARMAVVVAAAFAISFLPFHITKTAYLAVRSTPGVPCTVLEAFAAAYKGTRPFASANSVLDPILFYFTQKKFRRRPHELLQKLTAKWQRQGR
Chain of human P2Y4 receptor (P51582 whole entry): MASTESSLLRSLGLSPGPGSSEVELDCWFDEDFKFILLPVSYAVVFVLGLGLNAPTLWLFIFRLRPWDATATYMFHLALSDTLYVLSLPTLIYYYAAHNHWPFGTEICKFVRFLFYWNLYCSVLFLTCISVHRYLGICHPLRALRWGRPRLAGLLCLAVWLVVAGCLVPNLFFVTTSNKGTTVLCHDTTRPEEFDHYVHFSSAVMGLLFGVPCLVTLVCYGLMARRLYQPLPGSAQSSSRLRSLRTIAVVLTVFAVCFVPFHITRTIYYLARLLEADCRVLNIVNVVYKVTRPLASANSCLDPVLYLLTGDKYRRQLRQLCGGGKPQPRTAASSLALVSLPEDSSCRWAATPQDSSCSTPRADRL
Chain of human P2Y2 receptor (P41231 whole entry): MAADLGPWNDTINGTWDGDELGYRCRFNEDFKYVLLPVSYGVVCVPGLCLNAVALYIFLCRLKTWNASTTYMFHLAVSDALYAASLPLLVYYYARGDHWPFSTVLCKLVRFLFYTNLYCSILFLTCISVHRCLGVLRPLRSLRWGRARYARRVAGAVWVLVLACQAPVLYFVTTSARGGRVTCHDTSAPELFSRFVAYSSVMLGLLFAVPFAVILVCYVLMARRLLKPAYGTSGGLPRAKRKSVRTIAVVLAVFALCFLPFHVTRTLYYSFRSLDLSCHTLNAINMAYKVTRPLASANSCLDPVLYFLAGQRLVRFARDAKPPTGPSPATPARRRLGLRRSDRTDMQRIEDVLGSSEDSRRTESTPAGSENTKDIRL
Chain of human P2Y1 receptor (P47900 whole entry): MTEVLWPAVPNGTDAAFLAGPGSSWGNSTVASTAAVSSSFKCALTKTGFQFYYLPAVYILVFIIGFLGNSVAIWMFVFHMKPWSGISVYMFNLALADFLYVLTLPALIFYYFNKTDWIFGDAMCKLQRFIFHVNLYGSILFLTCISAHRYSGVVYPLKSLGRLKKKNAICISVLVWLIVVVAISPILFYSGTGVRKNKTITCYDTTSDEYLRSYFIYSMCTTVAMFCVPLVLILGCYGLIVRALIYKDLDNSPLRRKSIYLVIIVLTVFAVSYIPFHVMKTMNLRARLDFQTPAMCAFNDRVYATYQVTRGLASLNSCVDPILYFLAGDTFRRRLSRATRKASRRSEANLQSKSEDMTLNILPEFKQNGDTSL

Broadly, the EC50 is the concentration giving half of the maximal effect. Turning to `Nc1ncnc2c1ncn2[C@@H]1O[C@H](COP(=O)(O)OP(=O)(O)OP(=O)(O)O)[C@@H](O)[C@H]1O` [ATP], the EC50 on human P2Y2 receptor stood at 15 nM.

For the molecule `O=c1ccn([C@@H]2O[C@H](COP(=O)(O)OP(=O)(O)OC[C@H]3O[C@@H](n4ccc(=O)[nH]c4=O)[C@H](O)[C@@H]3O)[C@@H](O)[C@H]2O)c(=O)[nH]1` [compound 4, UP2U], at human P2Y6 receptor, the EC50 was determined as 33000 nM.

With `O=c1ccn([C@@H]2O[C@H](COP(=O)(O)OP(=O)(O)OP(=O)(O)O)[C@@H](O)[C@H]2O)c(=O)[nH]1` [compound 7, UTP], the EC50 at human P2Y2 receptor is 15 nM; at human P2Y4 receptor, 70 nM; on human P2Y6 receptor, 1470 nM.

Take `Nc1ncnc2c1ncn2[C@@H]1O[C@H](CO[P@](=O)(O)O[P@](=O)(O)OC[C@H]2O[C@@H](n3cnc4c(N)ncnc43)[C@H](O)[C@@H]2O)[C@@H](O)[C@H]1O` [compound 13, AP2A]: the EC50 on human P2Y1 receptor came to 4250 nM.

With `Nc1ncnc2c1ncn2[C@@H]1O[C@H](COP(=O)(O)OP(=O)(O)OC[C@H]2O[C@@H](n3ccc(=O)[nH]c3=O)[C@H](O)[C@@H]2O)[C@@H](O)[C@H]1O` [compound 14, AP2U], the EC50 at human P2Y2 receptor amounted to 23400 nM; at human P2Y1 receptor, 2850 nM.

With `Nc1nc2c(ncn2[C@@H]2O[C@H](COP(=O)(O)OP(=O)(O)OC[C@H]3O[C@@H](n4ccc(=O)[nH]c4=O)[C@H](O)[C@@H]3O)[C@@H](O)[C@H]2O)c(=O)[nH]1` [compound 18, UP2G], the EC50 was 2100 nM at human P2Y2 receptor, 4640 nM on human P2Y4 receptor and 7540 nM on human P2Y6 receptor.

As to `O=c1[nH]cnc2c1ncn2[C@@H]1O[C@H](COP(=O)(O)OP(=O)(O)OC[C@H]2O[C@@H](n3cnc4c(=O)[nH]cnc43)[C@H](O)[C@@H]2O)[C@@H](O)[C@H]1O` [compound 22, IP2I], the EC50 on human P2Y2 receptor is 4800 nM; at human P2Y4 receptor, 5060 nM; at human P2Y6 receptor it was greater than 10000 nM.

For the molecule `Nc1ncnc2c1ncn2[C@@H]1O[C@H](COP(=O)(O)OP(=O)(O)OP(=O)(O)OC[C@H]2O[C@@H](n3cnc4c(N)ncnc43)[C@H](O)[C@@H]2O)[C@@H](O)[C@H]1O` [compound 25, AP3A], the EC50 on human P2Y2 receptor was 28500 nM; at human P2Y1 receptor it was 11 nM.

On to `Nc1ccn([C@@H]2O[C@H](COP(=O)(O)OP(=O)(O)OP(=O)(O)OC[C@H]3O[C@@H](n4ccc(=O)[nH]c4=O)[C@H](O)[C@@H]3O)[C@@H](O)[C@H]2O)c(=O)n1` [compound 31, UP3C], for which the results for the EC50 at human P2Y2 receptor, on human P2Y4 receptor and at human P2Y6 receptor were 2000 nM, 16700 nM and 520 nM, respectively.

As for `Nc1nc2c(ncn2[C@@H]2O[C@H](COP(=O)(O)OP(=O)(O)OP(=O)(O)OC[C@H]3O[C@@H](n4ccc(=O)[nH]c4=O)[C@H](O)[C@@H]3O)[C@@H](O)[C@H]2O)c(=O)[nH]1` [compound 32, UP3G], the EC50 on human P2Y6 receptor came to 380 nM.

With `O=c1ccn([C@@H]2O[C@H](COP(=O)(O)OP(=O)(O)OP(=O)(O)OC[C@H]3O[C@@H](n4cnc5c(=O)[nH]cnc54)[C@H](O)[C@@H]3O)[C@@H](O)[C@H]2O)c(=O)[nH]1` [compound 33, UP3I], the EC50 at human P2Y2 receptor came to 4500 nM; on human P2Y6 receptor, 1310 nM.

For the molecule `Nc1nc2c(ncn2[C@H]2C[C@H](O)[C@@H](COP(=O)(O)OP(=O)(O)OP(=O)(O)OC[C@H]3O[C@@H](n4ccc(=O)[nH]c4=O)[C@H](O)[C@@H]3O)O2)c(=O)[nH]1` [compound 34, UP3dG], the concentration giving a half-maximal response (EC50) at human P2Y2 receptor was found to be 470 nM; on human P2Y4 receptor, 1980 nM; at human P2Y6 receptor, 280 nM.

Turning to `Nc1ccn([C@@H]2O[C@H](COP(=O)(O)OP(=O)(O)OP(=O)(O)OC[C@H]3O[C@@H](n4cnc5c(=O)[nH]cnc54)[C@H](O)[C@@H]3O)[C@@H](O)[C@H]2O)c(=O)n1` [compound 35, CP3I], the EC50 at human P2Y2 receptor and on human P2Y1 receptor was greater than 10000 nM in each case.

As to `Nc1nc2c(ncn2[C@@H]2O[C@H](COP(=O)(O)OP(=O)(O)OP(=O)(O)OC[C@H]3O[C@@H](n4cnc5c(=O)[nH]cnc54)[C@H](O)[C@@H]3O)[C@@H](O)[C@H]2O)c(=O)[nH]1` [compound 37, IP3G], the EC50 was greater than 10000 nM on human P2Y2 receptor, 6410 nM at human P2Y4 receptor and greater than 10000 nM at human P2Y6 receptor.

On to `O=c1ccn([C@@H]2O[C@H](COP(=O)(O)OP(=O)(O)OP(=O)(O)OP(=O)(O)OC[C@H]3O[C@@H](n4ccc(=O)[nH]c4=O)[C@H](O)[C@@H]3O)[C@@H](O)[C@H]2O)c(=O)[nH]1` [compound 43, UP4U], for which the EC50 came to 200 nM on human P2Y4 receptor and 24800 nM at human P2Y6 receptor.

Regarding `Nc1ccn([C@@H]2O[C@H](COP(=O)(O)OP(=O)(O)OP(=O)(O)OP(=O)(O)OC[C@H]3O[C@@H](n4ccc(=O)[nH]c4=O)[C@H](O)[C@@H]3O)[C@@H](O)[C@H]2O)c(=O)n1` [compound 44, UP4C], the figures for the 50% effective concentration (EC50) at human P2Y2 receptor, on human P2Y4 receptor and on human P2Y6 receptor were 460 nM, 850 nM and 12100 nM, respectively.

With `O=c1ccn([C@@H]2O[C@H](COP(=O)(O)OP(=O)(O)OP(=O)(O)OP(=O)(O)OC[C@H]3O[C@@H](n4cnc5c(=O)[nH]cnc54)[C@H](O)[C@@H]3O)[C@@H](O)[C@H]2O)c(=O)[nH]1` [compound 45, UP4I], the EC50 at human P2Y2 receptor is 520 nM; at human P2Y4 receptor, 280 nM; at human P2Y6 receptor, greater than 10000 nM.

Take `Cc1cn([C@H]2C[C@H](O)[C@@H](COP(=O)(O)OP(=O)(O)OP(=O)(O)OP(=O)(O)OC[C@H]3O[C@@H](n4ccc(=O)[nH]c4=O)[C@H](O)[C@@H]3O)O2)c(=O)[nH]c1=O` [compound 46, UP4T]: the EC50 on human P2Y2 receptor came to 180 nM; at human P2Y4 receptor, 350 nM.

For `O=c1ccn([C@@H]2O[C@H](COP(=O)(O)OP(=O)(O)OP(=O)(O)OP(=O)(O)OC[C@H]3O[C@@H](n4ccc(=S)[nH]c4=O)[C@H](O)[C@@H]3O)[C@@H](O)[C@H]2O)c(=O)[nH]1` [compound 47, UP44-thioU], the figures for the EC50 on human P2Y2 receptor, on human P2Y4 receptor and on human P2Y6 receptor were 40 nM, 170 nM and 190000 nM, respectively.

As to `O=c1ccn([C@@H]2O[C@H](COP(=O)(O)OP(=O)(O)OP(=O)(O)OP(=O)(O)OC[C@H]3O[C@@H](n4cnc5c(=O)[nH]cnc54)C[C@@H]3O)[C@@H](O)[C@H]2O)c(=O)[nH]1` [compound 48, UP4dI], the EC50 on human P2Y2 receptor was 230 nM; at human P2Y4 receptor, 470 nM; on human P2Y6 receptor it was greater than 10000 nM.

Consider `Nc1nc2c(ncn2[C@H]2C[C@H](O)[C@@H](COP(=O)(O)OP(=O)(O)OP(=O)(O)OP(=O)(O)OC[C@H]3O[C@@H](n4ccc(=O)[nH]c4=O)[C@H](O)[C@@H]3O)O2)c(=O)[nH]1` [compound 49, UP4dG], for which the EC50 at human P2Y2 receptor was found to be 60 nM; at human P2Y4 receptor, 140 nM; on human P2Y6 receptor, 1680 nM.

With `Nc1ccn([C@H]2C[C@H](O)[C@@H](COP(=O)(O)OP(=O)(O)OP(=O)(O)OP(=O)(O)OC[C@H]3O[C@@H](n4ccc(=O)[nH]c4=O)[C@H](O)[C@@H]3O)O2)c(=O)n1` [compound 51, UP4dC], the EC50 at human P2Y4 receptor was found to be 1220 nM; at human P2Y6 receptor, 16000 nM.

On to `Nc1ccn([C@@H]2O[C@H](COP(=O)(O)OP(=O)(O)OP(=O)(O)OP(=O)(O)OC[C@H]3O[C@@H](n4ccc(=S)[nH]c4=O)[C@H](O)[C@@H]3O)[C@@H](O)[C@H]2O)c(=O)n1` [compound 55, CP44-thioU], for which the EC50 at human P2Y2 receptor is 36 nM; on human P2Y4 receptor it was 110 nM; on human P2Y6 receptor, 5220 nM.

For the molecule `O=c1[nH]c(=S)ccn1[C@@H]1O[C@H](COP(=O)(O)OP(=O)(O)OP(=O)(O)OP(=O)(O)OC[C@H]2O[C@@H](n3ccc(=S)[nH]c3=O)[C@H](O)[C@@H]2O)[C@@H](O)[C@H]1O` [compound 56, 4-thioUP44-thioU], the EC50 at human P2Y2 receptor worked out at 82 nM; on human P2Y4 receptor, 90 nM; on human P2Y6 receptor, 6820 nM.
